According to the supplement of paper PMC4862054:

What was measured:
Assay in all cases: normalised viability (% of control), CellTiter-Blue; higher = more viable cells (about 100 = DMSO control)
Details in all cases: incubation time: 72 h
[1] = tested on: MDA-MB-468
Experimental: (§1)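 DSRT, CellTiter-Blue viability, 72 h incubation. Signal is normalised to DMSO and benzethonium chloride controls. Value is the normalised response at dose 3.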

[2] = tested on: HDQ-P1
Experimental: as §1

[3] = tested on: MDA-MB-231
Experimental: as §1

[4] = tested on: CAL-148
Experimental: as §1

[5] = tested on: DU-4475
Experimental: as §1

[6] = tested on: HCC1937
Experimental: as §1

[7] = tested on: CAL-120
Experimental: as §1

[8] = tested on: SK-BR-3
Experimental: as §1

[9] = tested on: HCC1599
Experimental: as §1

[10] = tested on: MFM-223
Experimental: as §1

[11] = tested on: HCC1143
Experimental: as §1

[12] = tested on: Hs578T
Experimental: as §1

[13] = tested on: CAL-51
Experimental: as §1

[14] = tested on: MDA-MB-436
Experimental: as §1

[15] = tested on: BT-549
Experimental: as §1

[16] = tested on: BT-474
Experimental: as §1

[17] = tested on: MDA-MB-453
Experimental: as §1

[18] = tested on: CAL-85-1
Experimental: as §1

[19] = tested on: MDA-MB-468; remark: listed apart in the source
Procedure, shortened: (§2)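 Each entry is normalised viability at a single listed concentration within a series. It comes from breast cancer cell lines incubated 72 h with compound in 384-well plates, then measured with CellTiter-Blue fluorescence at 560/590 nm. Every plate was normalised between vehicle (100) and a positive kill control (0).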

[20] = tested on: HDQ-P1; remark: listed apart in the source
Procedure, shortened: as §2

[21] = tested on: MDA-MB-231; remark: listed apart in the source
Procedure, shortened: as §2

[22] = tested on: CAL-148; remark: listed apart in the source
Procedure, shortened: as §2

[23] = tested on: CAL-120; remark: listed apart in the source
Procedure, shortened: as §2

[24] = tested on: SK-BR-3; remark: listed apart in the source
Procedure, shortened: as §2

[25] = tested on: HCC1599; remark: listed apart in the source
Procedure, shortened: as §2

[26] = tested on: MFM-223; remark: listed apart in the source
Procedure, shortened: as §2

[27] = tested on: HCC1143; remark: listed apart in the source
Procedure, shortened: as §2

[28] = tested on: Hs578T; remark: listed apart in the source
Procedure, shortened: as §2

[29] = tested on: MDA-MB-436; remark: listed apart in the source
Procedure, shortened: as §2

[30] = tested on: CAL-85-1; remark: listed apart in the source
Procedure, shortened: as §2

CCCC(CCC)C(=O)O [Valproic acid]
Details | normalised viability [%]
[1], 100 nM | 115
[2], 10 nM | 139
[3], 100 nM | 110
[4], 10 nM | 106
[5], 10 nM | 93.7
[6], 100 nM | 98.8
[7], 100 nM | 110
[8], 100 nM | 95
[9], 100 nM | 102
[10], 100 nM | 94.9
[11], 100 nM | 94.9
[12], 100 nM | 111
[13], 10 nM | 97.8
[14], 100 nM | 95.4
[15], 100 nM | 92
[16], 100 nM | 113
[17], 10 nM | 94.4
[18], 10 nM | 95.7
[19], 10 nM | 105
[19], 1000 nM | 117
[19], 10000 nM | 121
[20], 3 nM | 124
[20], 30 nM | 116
[20], 100 nM | 122
[21], 10 nM | 109
[21], 1000 nM | 101
[21], 10000 nM | 116
[22], 3 nM | 99.9
[22], 30 nM | 97.9
[22], 100 nM | 109
[23], 10 nM | 104
[23], 1000 nM | 104
[23], 10000 nM | 93.9
[24], 10 nM | 102
[24], 1000 nM | 107
[24], 10000 nM | 95.9
[25], 10 nM | 97.4
[25], 1000 nM | 90.7
[25], 10000 nM | 82
[26], 10 nM | 103
[26], 1000 nM | 87.2
[26], 10000 nM | 97.3
[27], 10 nM | 110
[27], 1000 nM | 104
[27], 10000 nM | 94.4
[28], 10 nM | 110
[28], 1000 nM | 140
[28], 10000 nM | 127
[29], 10 nM | 96.6
[29], 1000 nM | 89
[29], 10000 nM | 132
[30], 3 nM | 86.4
[30], 30 nM | 84.7
[30], 100 nM | 96.6

Cn1cnc2c(F)c(Nc3ccc(Br)cc3F)c(C(=O)NOCCO)cc21 [MEK-162]
Details | normalised viability [%]
[1], 10 nM | 98
[2], 1 nM | 114
[3], 10 nM | 92.5
[4], 1 nM | 91.5
[5], 1 nM | 97.6
[6], 10 nM | 95.1
[7], 10 nM | 92.2
[8], 10 nM | 83.4
[9], 10 nM | 111
[10], 10 nM | 87.9
[11], 10 nM | 80.6
[12], 10 nM | 81.5
[13], 1 nM | 111
[14], 10 nM | 126
[15], 10 nM | 107
[16], 10 nM | 114
[17], 1 nM | 113
[18], 1 nM | 98.1
[19], 1 nM | 107
[19], 100 nM | 99.5
[19], 1000 nM | 75.2
[20], 0.3 nM | 110
[20], 3 nM | 105
[20], 10 nM | 113
[21], 1 nM | 104
[21], 100 nM | 80.3
[21], 1000 nM | 47
[22], 0.3 nM | 94
[22], 3 nM | 91
[22], 10 nM | 97.2
[23], 1 nM | 98.1
[23], 100 nM | 93.8
[23], 1000 nM | 93.4
[24], 1 nM | 111
[24], 100 nM | 111
[24], 1000 nM | 102
[25], 1 nM | 90.5
[25], 100 nM | 88.4
[25], 1000 nM | 76.5
[26], 1 nM | 90.8
[26], 100 nM | 89.4
[26], 1000 nM | 94.5
[27], 1 nM | 100
[27], 100 nM | 70.7
[27], 1000 nM | 61.8
[28], 1 nM | 126
[28], 100 nM | 102
[28], 1000 nM | 97
[29], 1 nM | 114
[29], 100 nM | 76.4
[29], 1000 nM | 99.6
[30], 0.3 nM | 94.6
[30], 3 nM | 95.1
[30], 10 nM | 99.1

C[C@@H]1C=C2C(=O)O[C@@H]3CC[C@H](C1)[C@]23O [Galiellalactone]
Details | normalised viability [%]
[1], 500 nM | 105
[2], 50 nM | 113
[3], 500 nM | 91.8
[4], 50 nM | 104
[5], 50 nM | 117
[6], 500 nM | 90.9
[7], 500 nM | 85.6
[8], 500 nM | 96.4
[9], 500 nM | 91.1
[10], 500 nM | 92.8
[11], 500 nM | 106
[12], 500 nM | 101
[13], 50 nM | 106
[14], 500 nM | 90.1
[15], 500 nM | 105
[16], 500 nM | 136
[17], 50 nM | 110
[18], 50 nM | 97.4
[19], 50 nM | 101
[19], 5000 nM | 80.4
[19], 50000 nM | 33.6
[20], 15 nM | 108
[20], 150 nM | 96
[20], 500 nM | 116
[21], 50 nM | 100
[21], 5000 nM | 61.4
[21], 50000 nM | 7.78
[22], 15 nM | 99.7
[22], 150 nM | 108
[22], 500 nM | 103
[23], 50 nM | 88.6
[23], 5000 nM | 89.9
[23], 50000 nM | 83.8
[24], 50 nM | 105
[24], 5000 nM | 85.2
[24], 50000 nM | 6.84
[25], 50 nM | 95.2
[25], 5000 nM | 89.8
[25], 50000 nM | 67.5
[26], 50 nM | 90.6
[26], 5000 nM | 95.5
[26], 50000 nM | 40.4
[27], 50 nM | 90.8
[27], 5000 nM | 104
[27], 50000 nM | 86.9
[28], 50 nM | 121
[28], 5000 nM | 115
[28], 50000 nM | 50.9
[29], 50 nM | 98.2
[29], 5000 nM | 76.6
[29], 50000 nM | 21.9
[30], 15 nM | 95.8
[30], 150 nM | 90.5
[30], 500 nM | 108
